Measurements as given in patent publication US7078057B2, “Process for producing nanometer particles by fluid bed spray-drying” (priority 1999, dated 2006).

Assay: Particle size by laser diffraction using photo correlation spectroscopy (Nicomp C370)
Assay type: physicochemical
Conditions: ganaxolone particles in spray-dried mixture with lactose (Example I)
Experimental: For purposes of the present invention, particle size in the mixtures is determined by a laser diffraction technique using photo correlation spectroscopy (Nicomp C370). The results are reported in terms of volume-weighted mean diameter. Volume-weighted mean diameter is defined as follows: (Σnd^4)/(Σnd^3) where n=the number of particles in a size interval characterized by a diameter “d”. Remington's Pharmaceutical Sciences, 18th edition, Mack Publishing Company, Easton, Pa. (1990).
Approximately 100 g of ganaxolone was dissolved in 5 kg of ethanol with slight warming to 30° C. The solution was sprayed into 1 kg of spray-dried lactose NF (Fast Flo #316) in a Vector FL-M-1 fluid bed system equipped with a 6″ Wurster column. The spray rate was 34–41 mL/min using one gun. The static inlet pressure was 2.5–8 bar (250–800 kPa) affording an air flow of 25–45 cfm. The inlet temperature was 85–90° C. and the product temperature was 27–48° C. The resulting ganaxolone powder mixture was free-flowing and contained 63 mg ganaxolone per g of powder. The ganaxolone particle size in the mixture was determined by a laser diffraction technique using photo correlation spectroscopy (Nicomp C370).

## CC(=O)[C@H]1CC[C@H]2[C@@H]3CC[C@H]4C[C@](C)(O)CC[C@]4(C)[C@H]3CC[C@]12C [ganaxolone, 3α-hydroxy-3β-methyl-5α-pregnan-20-one]
  volume-weighted mean diameter: 660 nm
